Among the data in article PMC4969146 (Bioorganic & medicinal chemistry letters, 2016) are MIC values, retold here.

The test system of this assay is Escherichia coli K12. The format is cell-based.
Where [1] appears, read: K12, read-out: Minimum Inhibitory Concentration E. coli K12, M9 media.
Where [2] appears, read: K12, read-out: Minimum Inhibitory Concentration E. coli K12, M9 plus 5 µg/mL PABA.
Where [3] appears, read: K12, read-out: Minimum Inhibitory Concentration E. coli K12, M9 plus 20 µg/mL Methionine.

Converted amounts (≈) assume the structure as drawn. Read-outs that look alike come from different tables or passages of the source. Bounds are passed on as bounds.

As for `Nc1ccc(S(=O)(=O)c2ccc(N)cc2)cc1` [parent sulfonamide of 21, 4-[(4-aminobenzene)sulfonyl]aniline], the MIC is 25 µM (≈ 6.21 µg/mL) under setting [1], more than 934 µM under setting [2] and 50 µM under setting [3].

As to `Nc1ccc(S(N)(=O)=O)cc1` [parent sulfonamide of 22, sulfanilamide], the MIC by setting is: under setting [1], 22 µM (≈ 3.79 µg/mL); under setting [2], more than 934 µM; under setting [3], 58 µM.

In the case of `COc1cc(NS(=O)(=O)c2ccc(N)cc2)nc(OC)n1` [parent sulfonamide of 19, sulfadimethoxine], the MIC is, setting by setting: under setting [1], 1.6 µM (≈ 0.497 µg/mL); under setting [2], 537 µM; under setting [3], 3.4 µM.

Turning to `Cc1cc(NS(=O)(=O)c2ccc(N)cc2)no1` [parent sulfonamide of 15, sulfamethoxazole], the MIC reads like this: under setting [1], 0.8 µM (≈ 0.203 µg/mL); under setting [2], 263 µM; under setting [3], 1.5 µM.
